Measurements reported in patent US9169217B2, “Arylalkyl esters of 4-amino-6-(substituted phenyl)-picolinates and 6-amino-2-(substituted phenyl)-pyrimidinecarboxylates and their use as selective herbicides for crops” (Dow AgroSciences LLC, priority 2011, dated 2015).

What was measured:
[1] = tested on: Cirsium arvense (Thistle, Canada); assay: Postemergence herbicidal activity in pastures (Example 15); assay type: in vivo; conditions: pasture cropping systems, postemergence spray, 35 DAA
Protocol: (§1) Seeds of the desired test plant species were planted in Sun Gro Metro-Mix® 360 planting mixture, which typically has a pH of 6.0 to 6.8 and an organic matter content of about 30 percent, in plastic pots with a surface area of 139.7 cm^2. When required to ensure good germination and healthy plants, a fungicide treatment and/or other chemical or physical treatment was applied. The plants were grown with an approximate 14 h photoperiod which was maintained at about 24° C. during the day and 21° C. during the night. Nutrients and water were added on a regular basis and supplemental lighting was provided with overhead metal halide 1000-Watt lamps as necessary. The plants were employed for testing when they reached the four or six true leaf stage, depending on species.
(§2) Treatments consisted of esters of compounds 39 and G. Compound G is methyl 4-amino-3-chloro-6-(4-chloro-2-fluoro-3-methoxyphenyl)picolinate. A weighed amount, determined by the highest rate to be tested, of each test compound was placed in a 25 mL glass vial and was dissolved in 8 mL of a 97:3 v/v mixture of acetone and DMSO to obtain concentrated stock solutions. […] The concentrated stock solutions obtained were diluted with 16 mL of an aqueous mixture containing acetone, water, isopropyl alcohol, DMSO, Agri-dex crop oil concentrate, and Triton® X-77 surfactant in a 64.7:26.0:6.7:2.0:0.7:0.01 v/v ratio to obtain spray solutions containing the highest application rates. Additional application rates were obtained by serial dilution of 12 mL of the high rate solution into a solution containing 4 mL of a 97:3 v/v mixture of acetone and DMSO and 8 mL of an aqueous mixture containing acetone, water, isopropyl alcohol, DMSO, Agri-dex crop oil concentrate, and Triton® X-77 surfactant in a 48.5:39.0:10.0:1.5:1.0:0.02 v/v ratio to obtain ½×, ¼×, ⅛× and 1/16× rates of the high rate. Compound requirements are based upon a 12 mL application volume at a rate of 187 L/ha. Formulated compounds were applied to the plant material with an overhead Mandel track sprayer equipped with 8002E nozzles calibrated to deliver 187 L/ha over an application area of 0.503 m^2 at a spray height of 18 inches (43 cm) above average plant canopy height. Control plants were sprayed in the same manner with the blank.
(§3) The treated plants and control plants were placed in a greenhouse as described above and watered by sub-irrigation to prevent wash-off of the test compounds. After 35 d, the condition of the test plants as compared with that of the untreated plants was determined visually and scored on a scale of 0 to 100 percent where 0 corresponds to no injury and 100 corresponds to complete kill.

[2] = tested on: Solidago L. spec (Goldenrod); assay: as above; assay type: in vivo; conditions: pasture cropping systems, postemergence spray, 35 DAA
Protocol: as §1, §2, §3

[3] = tested on: Cyperus rotundus L. (purple nutsedge); assay: In-water applied herbicidal activity in transplanted paddy rice (Example 17); assay type: in vivo; conditions: rice cropping systems, 35 g ae/ha, 21 DAA, may represent multiple trials
How it was run: (§4)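 Ester forms of test compounds, in acetone diluted with aqueous Agri-dex (final 1.25% v/v crop oil concentrate), were injected into the flood water of paddy pots holding weeds or rice at the 2nd–3rd leaf stage in mud (pH ~7.3–7.8). Visual injury versus untreated plants was scored 0–100% after 3 weeks in greenhouse (~29/26 °C). GR50/GR80 were derived by probit analysis.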

[4] = tested on: Leptochloa chinensis (L.) NEES (Chinese sprangletop); assay: as above; assay type: in vivo; conditions: LEFCH, probit analysis; for GR50: 50% growth reduction; for GR80: 80% growth reduction; for GR90: 90% growth reduction
How it was run: as §4

## COC(=O)c1nc(-c2ccc(Cl)c(OC)c2F)cc(N)c1Cl [Compound G, methyl 4-amino-3-chloro-6-(4-chloro-2-fluoro-3-methoxyphenyl)picolinate, reference compound]
[1]; 17.5 g ae/ha
  Visual Injury (%) CIRAR: 40%
[1]; 35 g ae/ha
  Visual Injury (%) CIRAR: 60%
[2]; 70 g ae/ha
  Visual Injury (%) SOOSS: 30%
[2]; 140 g ae/ha
  Visual Injury (%) SOOSS: 50%
[3]
  Visual Injury (%) CYPRO: 47%

## COC(=O)c1nc(-c2ccc(Cl)c(OC)c2F)c(F)c(N)c1Cl [E, methyl 4-amino-3-chloro-6-(4-chloro-2-fluoro-3-methoxyphenyl)-5-fluoropicolinate, reference compound]
[4]
  GR50: 59.9 g ae/ha
  GR80: 99.4 g ae/ha
  GR90: 130.0 g ae/ha

## COC(=O)c1nc(-c2ccc(C3CC3)cc2)c(F)c(N)c1Cl [Compound B, methyl 4-amino-3-chloro-6-(4-cyclopropylphenyl)-5-fluoropicolinate]
other
  melting point: 116 to 119 °C

## COc1c(Cl)ccc(-c2nc(C(=O)OCc3ccccc3)c(Cl)c(N)c2F)c1F [Compound 1, benzyl 4-amino-3-chloro-6-(4-chloro-2-fluoro-3-methoxyphenyl)-5-fluoropicolinate]
[4]
  GR50: 50.4 g ae/ha
  GR80: 78.6 g ae/ha
  GR90: 99.1 g ae/ha

## COc1c(Cl)ccc(-c2cc(N)c(Cl)c(C(=O)OCc3ccccc3)n2)c1F [Compound 39]
[1]; 17.5 g ae/ha
  Visual Injury (%) CIRAR: 100%
[1]; 35 g ae/ha
  Visual Injury (%) CIRAR: 95%
[2]; 70 g ae/ha
  Visual Injury (%) SOOSS: 85%
[2]; 140 g ae/ha
  Visual Injury (%) SOOSS: 100%
[3]
  Visual Injury (%) CYPRO: 80%
other
  melting point: 90 to 91.5 °C
